# Measurements from paper PMC6150385, “The Blood-Brain Barrier Permeability of Six Indole Alkaloids from Uncariae Ramulus Cum Uncis in the MDCK-pHaMDR Cell Monolayer Model” (Molecules : A Journal of Synthetic Chemistry and Natural …, 2017).
# Assays:
# P-gp = experiment: Transport in the presence and absence of verapamil (P-gp function / verapamil inhibition of efflux) in MDCK-pHaMDR cell monolayer
# Procedure: The cell monolayers were washed twice with prewarmed HBSS before the experiments were carried out. The HBSS medium in the AP side (0.5 mL, for absorption transport) or BL side (1.5 mL, for efflux transport) was replaced with different test compounds. The plates were shaken at 55 rpm for 90 min at 37 °C in a water bath. Samples were quantitatively collected from both sides of the cell monolayer, immediately frozen, lyophilized, and then preserved below −20 °C. To measure the intracellular amounts, the cell monolayers were lyophilized after three freeze (−20 °C)–thaw (room temperature) cycles and preserved below –20 °C. […] The tested concentrations of alkaloids 1–6 were 40 µM. The function of P-gp were tested by the transport of Rh123 at 10 µM in the presence and absence of verapamil (100 µM) undertaken as described above.
# The verapamil inhibition experiment was carried out for alkaloids 1 and 3. The cells were pre-incubated with 100 µM of verapamil for 30 min before drug transport assays. Then verapamil was added to both sides, and 40 µM of test alkaloid was added to AP or BL side.
# Papp in AP→BL or BL→AP direction of each alkaloid was calculated based on the following equation:Papp = dQ/dt/A/C0 (cm/s) where Q is the accumulation quantity of the alkaloid in the receiver side (μmol), dQ/dt is the linear appearance rate of the alkaloid in the receiver side (μmol/s), C0 is the initial concentration in the donor side (µM), and A is the membrane surface area (cm^2). All of the experiments were conducted in six duplications and data were expressed as the mean ± SD.
# [1] = system: MDCK-pHaMDR cell monolayer; settings: for BBB permeability classification: MDCK-MDR1; for intracellular accumulation rates: dog, MDCK-MDR1, 90 min, 40 µM
# [2] = Bidirectional transport across MDCK-pHaMDR cell monolayer (in vitro BBB model); settings: dog; for recovery at 90 min, 40 µM: MDCK-MDR1, Recovery Rate
# [3] = system: MDCK-pHaMDR cell monolayer; experiment: as above; settings: for Intracellular Accumulation / Efflux Ratio (Papp BL→AP/Papp AP→BL): 40 μM, 90 min; for transport mechanism: time- (30–180 min) and concentration- (20–120 μM) dependence
# in vitro = settings: dog
# [4] = Stability of QC samples after three freeze-thaw cycles (HPLC); type: physicochemical; settings: three freeze (−20 °C)-thaw cycles, percentage remains
# Procedure: The stock solutions of the six alkaloids were diluted to three concentrations (low, medium and high) as quality control (QC) samples. Accuracy, precision and stability of QC samples were validated. Accuracy and intraday precision were evaluated by determining the QC samples in three replicates on the same day, while interday precision was assessed by repeated analysis of the same QC samples over three consecutive days. Precision was estimated by RSD, which should not exceed 15%. Accuracy was assessed by comparison of the calculated mean concentrations with the spiked concentrations, and the acceptable range should be within 85–115%. The absolute recoveries of six alkaloids were determined by comparing the peak areas of analytes in QC samples with those of the standard solutions in MeOH with equivalent concentrations.
# [5] = dog, MDCK-MDR1, with verapamil 100 µM
# [6] = MDCK-MDR1, Papp AP→BL, 40 μM, 90 min
SMILES,"recovery at 90 min, 40 µM ([2]; AP→BL, 40 μM, 90 min)","recovery at 90 min, 40 µM ([2]; BL→AP, 40 μM, 90 min)",Intracellular Accumulation ([3]; BL→AP),Papp B→A (in vitro; MDCK-MDR1),Papp A→B (in vitro; [6]),Stability ([4]; QC sample 5 μM),Stability ([4]; QC sample 60 μM),Stability ([4]; QC sample 120 μM),"Papp A→B at 90 min, 40 µM (in vitro; MDCK-MDR1)","Papp B→A at 90 min, 40 µM (in vitro; MDCK-MDR1)",also measured
"COC(=O)c1ccccc1-c1c2ccc(=N)cc-2oc2cc(N)ccc12 [Rh123, Rhodamine 123, reference compound]",,,,,,,,,,,"Papp A→B at 90 min, 10 µM (P-gp; dog, MDCK-MDR1): 8.43 ± 1.95 nm/s; Papp B→A at 90 min, 10 µM (P-gp; dog, MDCK-MDR1): 58 ± 2.59 nm/s; efflux ratio at 90 min, 10 µM (P-gp; dog, MDCK-MDR1, Efflux Ratio (Papp BL→AP/Papp AP→BL), Rh123 10 μM, 90 min, absence of verapamil): 6.88; Papp A→B at 90 min, 10 µM (P-gp; [5]): 12.7 ± 2.13 nm/s; Papp B→A at 90 min, 10 µM (P-gp; [5]): 17.1 ± 0.99 nm/s; efflux ratio at 90 min, 10 µM (P-gp; dog, MDCK-MDR1, with verapamil 100 µM, Efflux Ratio (Papp BL→AP/Papp AP→BL), Rh123 10 μM with 100 μM verapamil, 90 min): 1.34"
"CC[C@H]1CN2CC[C@]3(C(=O)Nc4ccccc43)[C@@H]2C[C@@H]1/C(=C\OC)C(=O)OC [alkaloid 1, rhynchophylline]",99.9 ± 1.15%,102.2 ± 0.47%,0.40 ± 0.04%,423 ± 24.8 nm/s,43.7 ± 3.7 nm/s,96.32 ± 3.30%,96.86 ± 4.64%,102.59 ± 3.38%,,,"BBB permeability classification [1]: moderate permeability; Intracellular Accumulation ([3]; AP→BL): 0.36 ± 0.05%; Papp A→B (in vitro; MDCK-MDR1, Papp AP→BL (level), AP side to BL side): ~10 nm/s; Papp A→B at 90 min, 40 µM (P-gp; dog, MDCK-MDR1): 222 ± 64.1 nm/s; Papp B→A at 90 min, 40 µM (P-gp; dog, MDCK-MDR1): 181 ± 10.9 nm/s; P-gp substrate status (P-gp; from verapamil (100 µM) inhibition of efflux): substrates of P-gp"
"CC[C@H]1CN2CC[C@@]3(C(=O)Nc4ccccc43)[C@@H]2C[C@@H]1/C(=C\OC)C(=O)OC [alkaloid 2, isorhynchophylline]",94.3 ± 1.43%,101 ± 1.89%,0.37 ± 0.06%,277 ± 9.3 nm/s,177 ± 12 nm/s,108.52 ± 1.08%,100.08 ± 2.26%,105.21 ± 3.28%,,,Intracellular Accumulation ([3]; AP→BL): 0.24 ± 0.04%; transport mechanism [3]: passive diffusion; Papp (in vitro; MDCK-MDR1): ~100 nm/s
"C=C[C@H]1CN2CC[C@]3(C(=O)Nc4ccccc43)[C@@H]2C[C@@H]1/C(=C\OC)C(=O)OC [alkaloid 3, corynoxeine]",96.4 ± 1.17%,99.6 ± 1.57%,,,,106.67 ± 5.82%,102.37 ± 1.65%,101.52 ± 2.26%,12.1 ± 1.4 nm/s,497 ± 47.1 nm/s,"BBB permeability classification [1]: moderate permeability; intracellular accumulation rates [1]: less than 0.4%; Efflux Ratio (Papp BL→AP/Papp AP→BL) [3]: 40.94; Efflux Ratio (Papp BL→AP/Papp AP→BL) ([3]; listed as corynoxeine (3)): above 2; Papp A→B (in vitro; MDCK-MDR1): ~10 nm/s; Papp A→B at 90 min, 40 µM (P-gp; dog, MDCK-MDR1): 172 ± 24.5 nm/s; Papp B→A at 90 min, 40 µM (P-gp; dog, MDCK-MDR1): 175 ± 8.2 nm/s; efflux ratio at 90 min, 40 µM (P-gp; dog, MDCK-MDR1, with verapamil 100 µM, Efflux Ratio (Papp BL→AP/Papp AP→BL), 40 μM alkaloid with 100 μM verapamil, 90 min): < 2"
"C=C[C@H]1CN2CC[C@@]3(C(=O)Nc4ccccc43)[C@@H]2C[C@@H]1/C(=C\OC)C(=O)OC [alkaloid 4, isocorynoxeine]",93 ± 1.4%,98.47 ± 0.82%,,,,107.15 ± 5.06%,102.72 ± 1.97%,102.02 ± 2.43%,111 ± 14.9 nm/s,207 ± 10.3 nm/s,"intracellular accumulation rates [1]: less than 0.4%; efflux ratio at 90 min, 40 µM ([2]; MDCK-MDR1, Efflux Ratio (Papp BL→AP/Papp AP→BL), 40 μM, 90 min): < 2; Papp at 90 min, 40 µM (in vitro; MDCK-MDR1): ~100 nm/s"
"CC[C@H]1CN2CCc3c([nH]c4ccccc34)[C@H]2C[C@@H]1/C(=C\OC)C(=O)OC [alkaloid 5, hirsutine]",89.3 ± 6.15%,104 ± 1.94%,6.19 ± 0.73%,141 ± 7.3 nm/s,151 ± 13.2 nm/s,106.1 ± 3.57%,101.9 ± 6.51%,100.5 ± 4.86%,,,transport mechanism [3]: passive diffusion; Papp (in vitro; MDCK-MDR1): ~100 nm/s
"C=C[C@H]1CN2CCc3c([nH]c4ccccc34)[C@H]2C[C@@H]1/C(=C\OC)C(=O)OC [alkaloid 6, hirsuteine]",88.9 ± 5.99%,104 ± 1.17%,,,,106.89 ± 3.01%,103.80 ± 5.92%,102.23 ± 4.19%,149 ± 18.3 nm/s,114 ± 18 nm/s,"Papp at 90 min, 40 µM (in vitro; MDCK-MDR1): ~100 nm/s"
"Cn1c(=O)c2c(ncn2C)n(C)c1=O [caffeine, reference compound]",,,,,,,,,,,Papp at 90 min ([2]; MDCK-MDR1): 300 nm/s
